Laboratory results taken from article PMC11460631, “Inhibition of transient receptor potential vanilloid 3 channels by antimalarial hydroxychloroquine alleviates TRPV3-dependent dermatitis” (The Journal of Biological Chemistry, 2024).
Changes are numbered by the printed parent chain.

How the values were obtained:
[1] = molecular target: T1, TRPV3 L670 alanine mutation (Homo sapiens, UniProt Q8NET8, L670A); test: Whole-cell recording of TRPV3 L670 alanine mutant; format: cell-based; details: 1 mM 2-APB, ± 80 mV
T1 construct: YFP or GFP; expressed in transfected cells; host or cells: HEK293T
T1 sequence (Q8NET8 1-790 L670A): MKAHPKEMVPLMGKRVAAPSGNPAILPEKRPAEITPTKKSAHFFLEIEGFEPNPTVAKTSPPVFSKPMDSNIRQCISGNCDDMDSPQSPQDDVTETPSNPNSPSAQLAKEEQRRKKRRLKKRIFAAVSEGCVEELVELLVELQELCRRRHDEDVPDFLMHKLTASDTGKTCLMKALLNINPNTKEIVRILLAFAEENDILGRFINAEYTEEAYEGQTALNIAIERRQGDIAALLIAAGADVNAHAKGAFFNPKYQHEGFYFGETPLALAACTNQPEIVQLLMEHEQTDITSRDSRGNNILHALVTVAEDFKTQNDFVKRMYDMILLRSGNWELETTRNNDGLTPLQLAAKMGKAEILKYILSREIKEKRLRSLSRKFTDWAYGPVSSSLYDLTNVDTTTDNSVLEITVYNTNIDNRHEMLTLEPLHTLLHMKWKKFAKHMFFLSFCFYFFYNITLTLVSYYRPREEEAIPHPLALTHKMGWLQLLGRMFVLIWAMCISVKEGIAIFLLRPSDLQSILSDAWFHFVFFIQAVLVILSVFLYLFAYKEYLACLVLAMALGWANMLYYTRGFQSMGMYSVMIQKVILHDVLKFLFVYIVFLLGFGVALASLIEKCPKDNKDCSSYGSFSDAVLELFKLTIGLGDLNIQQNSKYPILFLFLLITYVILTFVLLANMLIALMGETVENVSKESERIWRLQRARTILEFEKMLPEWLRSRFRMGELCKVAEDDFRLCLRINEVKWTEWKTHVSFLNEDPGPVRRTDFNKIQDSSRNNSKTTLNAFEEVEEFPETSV
Excerpt: (§1) As we mentioned above, HCQ may act as a pore blocker of TRPV3. To probe the binding configuration of HCQ to TRPV3, we carried out molecular docking using Rosetta suite (https://rosettacommons.org) ([21]) and validated the docking models with point mutations in TRPV3 (Fig. 4A). […] Furthermore, when we introduced L670A to L591A mutant, we also observed a left shift on the concentration–response curve on this double mutant as compared to L591A mutant (Fig. 4H).
(§2) Figure 4 Residues of the pore domain are critical for HCQ inhibition on TRPV3.A, left panel, docking model of HCQ to the pore domain of TRPV3 structure (6uw4). Right panels, top view and side view of the HCQ-binding pocket. B-J, representative whole-cell recording of TRPV3 and mutants in response to 1 mM 2-APB, the mixture of 1 mM 2-APB and concentration gradients of HCQ with the holding potential of ± 80 mV. K, concentration–response curves of HCQ in WT TRPV3 and mutants (n = 3–5 cells). L, quantification of the inhibitory ratio of HCQ (100 μM) on WT, L591A, and N671Q. […]
All data from whole-cell recordings were analyzed in Igor Pro (WaveMetrics). IC50 values were determined by fitting the Hill equation to concentration-response relationships. […]

[2] = molecular target: T2, TRPV3 L670A + L591A double mutant (Homo sapiens, UniProt Q8NET8, L591A/L670A); test: Whole-cell recording of TRPV3 L591A/L670A double mutant; format: cell-based; details: L670A introduced to L591A mutant
T2 construct: YFP or GFP; expressed in transfected cells; host or cells: HEK293T
T2 sequence (Q8NET8 1-790 L591A/L670A): T1 sequence (Q8NET8 1-790 L670A) with L591A
Excerpt: as §1
as §2, with “N671Q. Data are presented as mean ± SEM (n = 3–6 cells); F (2, 10) = 8.115, p = 0.0081 by one-way ANOVA using Dunnett’s multiple comparisons test. ∗∗, p = 0.0070 WT versus L591A; ∗, p = 0.0100 WT versus N671Q. 2-APB, 2-aminoethoxydiphenylborate; HCQ, hydroxychloroquine; TRP, transient receptor potential; TRPV3, transient receptor potential vanilloid 3 channel.” for “N671Q.”

CCN(CCO)CCCC(C)Nc1ccnc2cc(Cl)ccc12 (centres unmarked) [HCQ, hydroxychloroquine]
IC50 [1]: 170 ± 40 nM
shift of concentration–response curve on double mutant as compared to L591A mutant [2]: left shift
